Molecular target: T1, sigma-1 receptor (Cavia porcellus, UniProt Q60492)
T1 construct: guinea pig brains were homogenized; from tissue; host or cells: guinea pig brain membranes
Assay: Sigma-1 receptor binding ([3H]-(+)-pentazocine, brain membranes)
Conditions: [3H]-(+)-pentazocine 0.5 nM, guinea pig brain membranes; for inhibition at 0.01 µM / Percent Inhibition Percent Concentration (μM) 0.0100 SIGMA-1 receptor: compound concentration 0.0100 μM; for inhibition at 0.01 µM: read-out: Percent Inhibition Percent Concentration (μM) 0.0100 SIGMA-1 receptor; for inhibition at 0.1 µM / Percent Inhibition Percent Concentration (μM) 0.1000 SIGMA-1 receptor: compound concentration 0.1000 μM; for inhibition at 0.1 µM: read-out: Percent Inhibition Percent Concentration (μM) 0.1000 SIGMA-1 receptor
Protocol: Brain membrane preparation and binding assays for the sigma-1 receptor were performed as described (DeHaven-Hudkins et al., Characterization of the binding of [^3H]-(+)-pentazocine to recognition sites in guinea pig brain, Eur. J. Pharmacol. 227, 371-378) with some modifications.
In brief, guinea pig brains were homogenized in 10 vols. (w/v) of Tris-HCl 50 mM, 0.32 M sucrose, pH 7.4, with a Kinematica Polytron PT 3000 at 15000 r.p.m. for 30 s. The homogenate was centrifuged at 1000 g for 10 min at 4° C. and the supernatants collected and centrifuged again at 48000 g for 15 min at 4° C. The pellet was resuspended in 10 volumes of Tris-HCl buffer (50 mM, pH 7.4), incubated at 37° C. for 30 min, and centrifuged at 48000 g for 20 min at 4° C. Following this, the pellet was resuspended in fresh Tris-HCl buffer (50 mM, pH 7.4) and stored on ice until use.
Each assay tube contained 10 μL of [^3H]-(+)-pentazocine (final concentration of 0.5 nM), 900 μL of the tissue suspension to a final assay volume of 1 mL and a final tissue concentration of approximately 30 mg tissue net weight/mL. Non-specific binding was defined by addition of a final concentration of […] haloperidol. All tubes were incubated at 37° C. for 150 min before termination of the reaction by rapid filtration over Schleicher & Schuell GF 3362 glass fibre filters [previously soaked in a solution of 0.5% polyethylenimine for at least 1 h]. Filters were then washed with four times with 4 mL of cold Tris-HCl buffer (50 mM, pH 7.4). Following addition of scintillation cocktail, the samples were allowed to equilibrate overnight. The amount of bound radioactivity was determined by liquid scintillation spectrometry using a Wallac Winspectral 1414 liquid scintillation counter. Protein concentrations were determined by the method of Lowry et al. (Protein measurement with the Folin phenol reagent, J. Biol. Chem, 193, 265).
The binding of the compounds of the present invention to sigma-1 receptors was tested as described above.

T1 sequence (Q60492 whole entry): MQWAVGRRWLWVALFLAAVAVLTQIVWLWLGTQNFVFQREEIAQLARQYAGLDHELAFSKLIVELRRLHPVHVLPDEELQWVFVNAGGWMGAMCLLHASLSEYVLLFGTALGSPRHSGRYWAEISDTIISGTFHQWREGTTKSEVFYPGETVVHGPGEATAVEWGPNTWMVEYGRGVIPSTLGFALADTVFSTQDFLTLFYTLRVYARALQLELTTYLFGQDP

Compound | inhibition at 0.01 µM | inhibition at 0.1 µM | Ki | Percent Inhibition Percent Concentration (μM) 0.0100 SIGMA-1 receptor | Percent Inhibition Percent Concentration (μM) 0.1000 SIGMA-1 receptor
CC1(C)[C@@H](CCN2CCCC(c3ccccc3)C2)C[C@H]1CN1CCOCC1 (stereo partly shown) [compound 40] | 16.3% | 60.1% | – | – | –
CC1(C)[C@@H](CCOCc2ccccc2)C[C@H]1CN1CCN(c2ccccc2)CC1 [compound 36] | 65.8% | 88.3% | 47 nM | – | –
CC1(C)[C@@H](CCn2cccn2)C[C@H]1CN1CCOCC1 [compound 44] | 41.7% | 82.8% | – | – | –
CC1(C)[C@@H](CCn2cncn2)C[C@H]1CN1CCCCC1 [compound 50] | 2% | 20.9% | – | – | –
CC1CCN(C[C@@H]2C[C@H](CCOCc3ccccc3)C2(C)C)CC1 [compound 28] | 93.5% | 100% | 5 nM | – | –
CC1(C)[C@@H](CCOCc2ccccc2)C[C@H]1CN1CCOCC1 [compound 31] | 89.9% | 101% | 1.7 nM | – | –
CC1(C)[C@@H](COCc2ccccc2)C[C@H]1CN1CCCCC1 [compound 7] | 94.5% | 101% | 0.79 nM | – | –
CN1CCN(C[C@@H]2C[C@H](COCc3ccccc3)C2(C)C)CC1 [compound 10] | 86.7% | 99.5% | 0.95 nM | – | –
CC(O)[C@@H]1C[C@H](CCN2CCCCC2)C1(C)C (stereo partly shown) [compound 12] | 5.5% | 44.1% | – | – | –
CC1(C)[C@@H](CCn2cncn2)C[C@H]1CN1CCOCC1 [compound 45] | 10.3% | 28.4% | – | – | –
CC1(C)[C@@H](CCOCc2ccccc2)C[C@H]1CN1CCCC1 [compound 33] | 85.3% | 89.8% | 0.6 ± 0.2 nM | – | –
CC1(C)[C@@H](CCO)C[C@H]1CN1CCCCC1 [compound 17] | 45.2% | 61.5% | 41.8 nM | – | –
CC1(C)[C@@H](CCn2ccc3c2CCCC3=O)C[C@H]1CN1CCCCC1 [compound 53] | -6.6% | 73.6% | – | – | –
CC1(C)[C@@H](CCO)C[C@H]1CN1CCOCC1 [compound 19] | 17.1% | 42.3% | – | – | –
CC1(C)[C@H](CCOCc2ccccc2)C[C@@H]1CN1CCN(c2ccccc2)CC1 [compound 4] | 24.1% | 82.2% | – | – | –
CC1(C)[C@@H](CCO)C[C@H]1CN1CCC(c2ccccc2)CC1 [compound 22] | 91.9% | 96.8% | 1.4 nM | – | –
CC1(C)[C@@H](CCOc2ccccc2)C[C@H]1CN1CCOCC1 [compound 15] | 93.6% | 95.4% | 4.2 nM | – | –
CN1CCN(C[C@@H]2C[C@H](CCOCc3ccccc3)C2(C)C)CC1 [compound 34] | 92.3% | 96.2% | 3.6 nM | – | –
CC1(C)[C@H](CCOCc2ccccc2)C[C@@H]1CN1CCC(c2ccccc2)CC1 [compound 3] | 30.2% | 97.7% | – | – | –
CC1(C)[C@H](CCO)C[C@@H]1CN1CCOCC1 [compound 20] | 31.5% | 63.1% | – | – | –
CC1(C)[C@@H](CCn2ccc3c2CCCC3=O)C[C@H]1CN1CCOCC1 [compound 46] | 50.2% | 83% | 13.5 nM | – | –
CC1(C)[C@@H](CCOCc2ccccc2)C[C@H]1CN1CCSCC1 [compound 30] | 74% | 91.8% | 1 nM | – | –

Compound | inhibition at 0.01 µM | inhibition at 0.1 µM | Ki | Percent Inhibition Percent Concentration (μM) 0.0100 SIGMA-1 receptor | Percent Inhibition Percent Concentration (μM) 0.1000 SIGMA-1 receptor
CC1(C)[C@@H](CCOCc2ccccc2)C[C@H]1CN1CCN(c2ccccc2)CC1.O=C(O)C(=O)O [compound 37] | – | – | 33.5 nM | 79.7% | 98.8%
CN(Cc1ccccc1)CC1CC(CCO)C1(C)C (stereo not shown) [compound 24] | 69.7% | 92% | 3.3 nM | – | –
CN1CCN(C[C@H]2C[C@@H](CCOCc3ccccc3)C2(C)C)CC1 [compound 5] | 42.5% | 92.4% | – | – | –
CC(O)[C@@H]1C[C@H](CCN2CCOCC2)C1(C)C (stereo partly shown) [compound 11] | -8.3% | 44.4% | – | – | –
CC(O)(c1ccccc1)[C@@H]1C[C@H](CCN2CCOCC2)C1(C)C (stereo partly shown) [compound 13] | 77.8% | 95.2% | 1.2 nM | – | –
CC1(C)[C@@H](COCc2ccccc2)C[C@H]1CN1CCOCC1 [compound 6] | 91% | 98.4% | 1.3 nM | – | –
CC1(C)[C@H](COCc2ccccc2)C[C@@H]1CCN1CCOCC1 [compound 39] | 94.1% | 95.8% | 8.4 nM | – | –
CC(O)(c1ccccc1)[C@@H]1C[C@H](CCN2CCCCC2)C1(C)C (stereo partly shown) [compound 14] | 75.6% | 97.5% | 1.9 nM | – | –
CC1(C)[C@@H](CCOCc2ccccc2)C[C@H]1CN1CCC(c2ccccc2)CC1 [compound 29] | 76.9% | 95.6% | 16.6 nM | – | –
CN1CCN(C[C@@H]2C[C@H](CCOCc3ccccc3)C2(C)C)CC1.O=C(O)C(=O)O [compound 35] | – | – | 5.3 nM | 76.7% | 95.9%
CC1(C)[C@H](CO)C[C@@H]1CCN1CCC(Cc2ccccc2)CC1 [compound 25] | 83% | 98.3% | 1.2 nM | – | –
CC1(C)[C@H](CCOCc2ccccc2)C[C@@H]1CN1CCOCC1 [compound 1] | 62.8% | 79.7% | 6.1 nM | – | –
C[C@@H]1CN(C[C@@H]2C[C@H](CCOCc3ccccc3)C2(C)C)C[C@H](C)O1 [compound 32] | 94.6% | 99.1% | 3.6 nM | – | –
COC(=O)C[C@H]1C[C@@H](CN2CCCCC2)C1(C)C [compound 26] | 23.9% | 50% | – | – | –
CC1(C)[C@@H](CCN2CCc3ccccc3C2)C[C@H]1CN1CCOCC1 [compound 47] | 36.8% | 92% | – | – | –
CC1(C)[C@@H](COCc2ccccc2)C[C@H]1CN1CCC(c2ccccc2)CC1 [compound 8] | 48.3% | 101% | 10.9 nM | – | –
CC1(C)[C@@H](CCN2CCC(c3ccccc3)CC2)C[C@H]1CN1CCCCC1 [compound 51] | 36.1% | 81.9% | – | – | –
CC1(C)[C@@H](COCc2ccccc2)C[C@H]1CN1CCN(c2ccccc2)CC1 [compound 9] | 60% | 94.7% | 14.6 nM | – | –
CC1(C)[C@@H](CCOc2ccccc2)C[C@H]1CN1CCCCC1 [compound 16] | 97.5% | 96.4% | 2.2 nM | – | –
C[C@@H]1CN(C[C@@H]2C[C@H](CCO)C2(C)C)C[C@H](C)O1 [compound 23] | 27.6% | 70.6% | – | – | –
CC1CCN(C[C@@H]2C[C@H](CCO)C2(C)C)CC1 [compound 21] | 25.7% | 77.1% | – | – | –
CC1(C)[C@@H](CCN2CCc3ccccc3C2)C[C@H]1CN1CCCCC1 [compound 54] | 42.2% | 87.1% | 11.7 nM | – | –

Reference: patent publication US20100105680A1, “SUBSTITUTED DIMETHYLCYCLOBUTYL COMPOUNDS, THEIR PREPARATION AND USE IN MEDICAMENTS” (priority 2006, published 2010)
